In turn, `COc1nc(NCCCN2CCOCC2)nc(OC)c1NC(=O)c1ccc(Oc2cncc([Si](C)(C)C)c2)o1` returned a melting point of 80 to 82 °C.

Broadly, the melting point is the temperature of the solid-liquid transition.

The values are drawn from patent US20090291915A1, “Silicon Compounds and Their Use” (priority 2001, published 2009).
